Assay results: patent publication US11000033B2, “Ketone or oxime compound, and herbicide” (NISSAN CHEMICAL CORPORATION, priority 2014, dated 2021)

Columns and labels:
Type in all cases: in vivo
[1] = test system: Echinochloa oryzacola Vasing.; assay: Test Example 1: herbicidal activity, application before weed generation in submerged conditions (symbol A); details: application herbicide amount 320 g/ha
Outline: (§1)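 Paddy pre-emergence test. Formulated emulsion, water-diluted to a predetermined rate, is applied to floodwater on sowing day; rice transplanted at 2.5 leaves. Effect read at 3 weeks on a 0–5 herbicidal-ratio scale.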

Scirpus juncoides [2] = assay: Test Example 1: herbicidal activity, application before weed generation in submerged conditions (symbol B); details: application herbicide amount 320 g/ha
Outline: as §1

Monochoria vaginalis [3] = assay: Test Example 1: herbicidal activity, application before weed generation in submerged conditions (symbol C); details: application herbicide amount 320 g/ha
Outline: as §1

transplanted rice plant = assay: Test Example 1: effect on crop, application before weed generation in submerged conditions (symbol a); details: application herbicide amount 320 g/ha
Outline: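 Alluvial soil pots flooded to 4 cm water, sown with Echinochloa oryzacola, Scirpus juncoides and Monochoria vaginalis, then transplanted with 2.5 leaf stage rice seedlings; pre-emergence application. Greenhouse 25° C. to 30° C.; scored 0–5 by herbicidal ratio 3 weeks after application.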

[4] = test system: Echinochloa oryzacola Vasing.; assay: Test Example 2: herbicidal activity, application during weed generation in submerged conditions (symbol A); details: Table 23; application herbicide amount 320 g/ha; grade 0-5 by criteria of Test Example 1
Outline: (§2)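 Scoring of herbicidal effect took place 3 weeks after treatment, using the criteria of the earlier test. Treatment was water-surface application of diluted emulsifiable compound at a set dose. Plants were at one- to two-leaf stage in submerged alluvial soil (4 cm depth), greenhouse 25-30° C.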

Scirpus juncoides [5] = assay: Test Example 2: herbicidal activity, application during weed generation in submerged conditions (symbol B); details: Table 23; application herbicide amount 320 g/ha; grade 0-5 by criteria of Test Example 1
Outline: as §2

Monochoria vaginalis [6] = assay: Test Example 2: herbicidal activity, application during weed generation in submerged conditions (symbol C); details: Table 23; application herbicide amount 320 g/ha; grade 0-5 by criteria of Test Example 1
Outline: as §2

[7] = test system: Echinochloa crus-galli var. crus-galli; assay: Test Example 3: herbicidal effect by foliage application, Wagner pot (symbol H); details: application herbicide amount 320 g/ha
Outline: (§3)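 Foliar spray of a water-diluted emulsion at a predetermined herbicide amount, applied to 14-day-old plants. Seedlings were raised in flooded alluvial soil (0.1–0.5 cm water) at 25–30 °C in a greenhouse. Injury was rated after 3 weeks against fixed criteria.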

Leptochloa chinensis = assay: Test Example 3: herbicidal effect by foliage application, Wagner pot (symbol D); details: application herbicide amount 320 g/ha
Outline: as §3

Cyperus difformis = assay: Test Example 3: herbicidal effect by foliage application, Wagner pot (symbol E); details: application herbicide amount 320 g/ha
Outline: as §3

[8] = test system: directly sowed rice plant; assay: Test Example 3: effect on crop by foliage application, Wagner pot (symbol b); details: application herbicide amount 320 g/ha
Outline: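 Alluvial soil in a 1/10000-are Wagner pot was flooded to a water depth of 0.1–0.5 cm. Echinochloa crus-galli var. crus-galli, Leptochloa chinensis, Cyperus difformis and rice were sown into it and grown in a greenhouse at 25–30 °C.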

Digitaria ciliaris = assay: Test Example 5: herbicidal effect by foliage application, plastic box (symbol F); details: 320 g/ha, 3 weeks after application
Outline: (§4)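 Seeds were sown in sterilized diluvial soil, covered with about 1.5 cm of soil and grown 14 days in a greenhouse at 25° C. to 30° C. An emulsifiable formulation diluted in water to a set rate was sprayed over foliage, and injury was scored 3 weeks later.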

Setaria viridis = assay: Test Example 5: herbicidal effect by foliage application, plastic box (symbol G); details: 320 g/ha, 3 weeks after application
Outline: as §4

[9] = test system: Echinochloa crus-galli var. crus-galli; assay: Test Example 5: herbicidal effect by foliage application, plastic box (symbol H); details: 320 g/ha, 3 weeks after application
Outline: as §4

Avena fatua = assay: Test Example 5: herbicidal effect by foliage application, plastic box (symbol I); details: 320 g/ha, 3 weeks after application
Outline: as §4

Alopecurus myosuroides = assay: Test Example 5: herbicidal effect by foliage application, plastic box (symbol J); details: 320 g/ha, 3 weeks after application
Outline: as §4

Lolium multiflorum Lam. = assay: Test Example 5: herbicidal effect by foliage application, plastic box (symbol K); details: 320 g/ha, 3 weeks after application
Outline: as §4

Apera spica-venti = assay: Test Example 5: herbicidal effect by foliage application, plastic box (symbol L); details: 320 g/ha, 3 weeks after application
Outline: as §4

Abutilon theophrasti = assay: Test Example 5: herbicidal effect by foliage application, plastic box (symbol M); details: 320 g/ha, 3 weeks after application
Outline: as §4

Amaranthus retroflexus = assay: Test Example 5: herbicidal effect by foliage application, plastic box (symbol N); details: 320 g/ha, 3 weeks after application
Outline: as §4

Chenopodium album = assay: Test Example 5: herbicidal effect by foliage application, plastic box (symbol O); details: 320 g/ha, 3 weeks after application
Outline: as §4

Stellaria media = assay: Test Example 5: herbicidal effect by foliage application, plastic box (symbol P); details: 320 g/ha, 3 weeks after application
Outline: as §4

Galium spurium = assay: Test Example 5: herbicidal effect by foliage application, plastic box (symbol Q); details: 320 g/ha, 3 weeks after application
Outline: as §4

Veronica persica = assay: Test Example 5: herbicidal effect by foliage application, plastic box (symbol R); details: 320 g/ha, 3 weeks after application
Outline: as §4

corn = assay: Test Example 5: effect on crop by foliage application, plastic box (symbol c); details: 320 g/ha, 3 weeks after application
Outline: (§5)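 Greenhouse test at 25° C. to 30° C. Seeds of crops and weeds were spot-sown in boxes of sterilized diluvial soil under roughly 1.5 cm soil cover, then grown for foliage treatment.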

soybean = assay: Test Example 5: effect on crop by foliage application, plastic box (symbol d); details: 320 g/ha, 3 weeks after application
Outline: as §5

rice plant = assay: Test Example 5: effect on crop by foliage application, plastic box (symbol b); details: 320 g/ha, 3 weeks after application
Outline: as §5

wheat = assay: Test Example 5: effect on crop by foliage application, plastic box (symbol e); details: 320 g/ha, 3 weeks after application
Outline: as §5

beet = assay: Test Example 5: effect on crop by foliage application, plastic box (symbol f); details: 320 g/ha, 3 weeks after application
Outline: as §5

rapeseed = assay: Test Example 5: effect on crop by foliage application, plastic box (symbol g); details: 320 g/ha, 3 weeks after application
Outline: as §5

CON=C(C)CC1CC(OC(=O)N2CCOCC2)=C(c2c(C)cc(-c3ccc(Cl)cc3Cl)cc2C)C1=O (stereo not drawn) [6-090]
Herbicidal effect grade, A: Echinochloa oryzacola Vasing. [1]: 5 (Herbicidal ratio of 90% or more (almost completely withered))
Herbicidal effect grade, B: Scirpus juncoides (Scirpus juncoides [2]): 0 (Herbicidal ratio of 5% or lower (almost no effect))
Herbicidal effect grade, C: Monochoria vaginalis (Monochoria vaginalis [3]): 0 (Herbicidal ratio of 5% or lower (almost no effect))
Effect grade on crop, a: transplanted rice plant (transplanted rice plant): 0 (Herbicidal ratio of 5% or lower (almost no effect))
Herbicidal effect grade, A: Echinochloa oryzacola Vasing. [4]: 3 (Herbicidal ratio of 40% or higher and lower than 70%)
Herbicidal effect grade, B: Scirpus juncoides (Scirpus juncoides [5]): 0 (Herbicidal ratio of 5% or lower (almost no effect))
Herbicidal effect grade, C: Monochoria vaginalis (Monochoria vaginalis [6]): 0 (Herbicidal ratio of 5% or lower (almost no effect))
herbicidal effect on H (Echinochloa crus-galli var. crus-galli), grade 0-5 [7]: 0 (Herbicidal ratio of 5% or lower (almost no effect))
herbicidal effect on D (Leptochloa chinensis), grade 0-5 (Leptochloa chinensis): 5 (Herbicidal ratio of 90% or more (almost completely withered))
herbicidal effect on E, grade 0-5 (Cyperus difformis): 0 (Herbicidal ratio of 5% or lower (almost no effect))
effect on crop b (directly sowed rice plant), grade 0-5 [8]: 0 (Herbicidal ratio of 5% or lower (almost no effect))
F: Digitaria ciliaris, herbicidal effect (criteria of Test Example 1) (Digitaria ciliaris): 5 (Herbicidal ratio of 90% or more (almost completely withered))
G: Setaria viridis, herbicidal effect (criteria of Test Example 1) (Setaria viridis): 5 (Herbicidal ratio of 90% or more (almost completely withered))
H: Echinochloa crus-galli var. crus-galli, herbicidal effect (criteria of Test Example 1) [9]: 4 (Herbicidal ratio of 70% or higher and lower than 90%)
I: Avena fatua, herbicidal effect (criteria of Test Example 1) (Avena fatua): 4 (Herbicidal ratio of 70% or higher and lower than 90%)
J: Alopecurus myosuroides, herbicidal effect (criteria of Test Example 1) (Alopecurus myosuroides): 3 (Herbicidal ratio of 40% or higher and lower than 70%)
K: Lolium multiflorum Lam., herbicidal effect (criteria of Test Example 1) (Lolium multiflorum Lam.): 4 (Herbicidal ratio of 70% or higher and lower than 90%)
L: Apera spica-venti, herbicidal effect (criteria of Test Example 1) (Apera spica-venti): 2 (Herbicidal ratio of 20% or higher and lower than 40%)
M: Abutilon theophrasti, herbicidal effect (criteria of Test Example 1) (Abutilon theophrasti): 0 (Herbicidal ratio of 5% or lower (almost no effect))
N: Amaranthus retroflexus, herbicidal effect (criteria of Test Example 1) (Amaranthus retroflexus): 0 (Herbicidal ratio of 5% or lower (almost no effect))
O: Chenopodium album, herbicidal effect (criteria of Test Example 1) (Chenopodium album): 0 (Herbicidal ratio of 5% or lower (almost no effect))
P: Stellaria media, herbicidal effect (criteria of Test Example 1) (Stellaria media): 0 (Herbicidal ratio of 5% or lower (almost no effect))
Q: Galium spurium, herbicidal effect (criteria of Test Example 1) (Galium spurium): 0 (Herbicidal ratio of 5% or lower (almost no effect))
R: Veronica persica, herbicidal effect (criteria of Test Example 1) (Veronica persica): 0 (Herbicidal ratio of 5% or lower (almost no effect))
c: corn, effect on crop (criteria of Test Example 1) (corn): 2 (Herbicidal ratio of 20% or higher and lower than 40%)
d: soybean, effect on crop (criteria of Test Example 1) (soybean): 0 (Herbicidal ratio of 5% or lower (almost no effect))
b: directly sowed rice plant, effect on crop (criteria of Test Example 1) (rice plant): 1 (Herbicidal ratio of 5% or higher and lower than 20%)
e: wheat, effect on crop (criteria of Test Example 1) (wheat): 0 (Herbicidal ratio of 5% or lower (almost no effect))
f: beet, effect on crop (criteria of Test Example 1) (beet): 0 (Herbicidal ratio of 5% or lower (almost no effect))
g: rapeseed, effect on crop (criteria of Test Example 1) (rapeseed): 4 (Herbicidal ratio of 70% or higher and lower than 90%)

CON=C(C)CC1CC(O)=C(c2c(C)cc(Oc3ccc(C(F)(F)F)cn3)cc2C)C1=O (mixture of isomers) [6-054]
Herbicidal effect grade, A: Echinochloa oryzacola Vasing. [1]: 1 (Herbicidal ratio of 5% or higher and lower than 20%)
Herbicidal effect grade, B: Scirpus juncoides (Scirpus juncoides [2]): 0 (Herbicidal ratio of 5% or lower (almost no effect))
Herbicidal effect grade, C: Monochoria vaginalis (Monochoria vaginalis [3]): 0 (Herbicidal ratio of 5% or lower (almost no effect))
Effect grade on crop, a: transplanted rice plant (transplanted rice plant): 2 (Herbicidal ratio of 20% or higher and lower than 40%)
Herbicidal effect grade, A: Echinochloa oryzacola Vasing. [4]: 2 (Herbicidal ratio of 20% or higher and lower than 40%)
Herbicidal effect grade, B: Scirpus juncoides (Scirpus juncoides [5]): 1 (Herbicidal ratio of 5% or higher and lower than 20%)
Herbicidal effect grade, C: Monochoria vaginalis (Monochoria vaginalis [6]): 0 (Herbicidal ratio of 5% or lower (almost no effect))
herbicidal effect on H (Echinochloa crus-galli var. crus-galli), grade 0-5 [7]: 5 (Herbicidal ratio of 90% or more (almost completely withered))
herbicidal effect on D (Leptochloa chinensis), grade 0-5 (Leptochloa chinensis): 5 (Herbicidal ratio of 90% or more (almost completely withered))
herbicidal effect on E, grade 0-5 (Cyperus difformis): 3 (Herbicidal ratio of 40% or higher and lower than 70%)
effect on crop b (directly sowed rice plant), grade 0-5 [8]: 5 (Herbicidal ratio of 90% or more (almost completely withered))
F: Digitaria ciliaris, herbicidal effect grade (Digitaria ciliaris): 4 (Herbicidal ratio of 70% or higher and lower than 90%)
G: Setaria viridis, herbicidal effect grade (Setaria viridis): 5 (Herbicidal ratio of 90% or more (almost completely withered))
H: Echinochloa crus-galli var. crus-galli, herbicidal effect grade [9]: 5 (Herbicidal ratio of 90% or more (almost completely withered))
I: Avena fatua, herbicidal effect grade (Avena fatua): 3 (Herbicidal ratio of 40% or higher and lower than 70%)
J: Alopecurus myosuroides, herbicidal effect grade (Alopecurus myosuroides): 5 (Herbicidal ratio of 90% or more (almost completely withered))
K: Lolium multiflorum Lam., herbicidal effect grade (Lolium multiflorum Lam.): 4 (Herbicidal ratio of 70% or higher and lower than 90%)
L: Apera spica-venti, herbicidal effect grade (Apera spica-venti): 5 (Herbicidal ratio of 90% or more (almost completely withered))
M: Abutilon theophrasti, herbicidal effect grade (Abutilon theophrasti): 0 (Herbicidal ratio of 5% or lower (almost no effect))
N: Amaranthus retroflexus, herbicidal effect grade (Amaranthus retroflexus): 0 (Herbicidal ratio of 5% or lower (almost no effect))
O: Chenopodium album, herbicidal effect grade (Chenopodium album): 4 (Herbicidal ratio of 70% or higher and lower than 90%)
P: Stellaria media, herbicidal effect grade (Stellaria media): 0 (Herbicidal ratio of 5% or lower (almost no effect))
Q: Galium spurium, herbicidal effect grade (Galium spurium): 0 (Herbicidal ratio of 5% or lower (almost no effect))
R: Veronica persica, herbicidal effect grade (Veronica persica): 0 (Herbicidal ratio of 5% or lower (almost no effect))
c: corn, effect on crop grade (corn): 4 (Herbicidal ratio of 70% or higher and lower than 90%)
d: soybean, effect on crop grade (soybean): 0 (Herbicidal ratio of 5% or lower (almost no effect))
b: directly sowed rice plant, effect on crop grade (rice plant): 3 (Herbicidal ratio of 40% or higher and lower than 70%)
e: wheat, effect on crop grade (wheat): 0 (Herbicidal ratio of 5% or lower (almost no effect))
f: beet, effect on crop grade (beet): 0 (Herbicidal ratio of 5% or lower (almost no effect))
g: rapeseed, effect on crop grade (rapeseed): 1 (Herbicidal ratio of 5% or higher and lower than 20%)
